Experimental data taken from patent US9326973B2, “Hepatitis C virus inhibitors” (priority 2012, dated 2016).

Tested on: HCV replicon, genotype-1a variant with glutamine 30 changed to glutamate in the NS5A protein
Experiment: microbe, parasite or virus in culture
Assay type: cell-based, HCV genotype 1a
Conditions: HCV replicon genotype 1a Q30E (Q→E) variant; test compound titrated with an NS5A-targeting compound (BMS-790052 fixed at 200 nM); ranking of synergist activity
Method in brief: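 Synergy was assessed by combining several fixed amounts of an NS5A-targeting compound with a titration of the second compound of interest.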

SMILES	Fold-Synergistic 1a (Q30E) [fold]
O=C(c1cncnc1)N1CCC[C@H]1c1ncc(-c2ccc(-c3ccc(-c4cnc([C@@H]5CCCN5C(=O)c5cncnc5)[nH]4)cc3)cc2)[nH]1 [Compound S-195]	<10
O=C(CCN1CCOCC1)N1CCC[C@H]1c1ncc(-c2ccc(-c3ccc(-c4cnc([C@@H]5CCCN5C(=O)CCN5CCOCC5)[nH]4)cc3)cc2)[nH]1 [Compound S-196]	<10
CC(C)(C)CC(=O)N1CCC[C@H]1c1ncc(-c2ccc(-c3ccc(-c4cnc([C@@H]5CCCN5C(=O)CC(C)(C)C)[nH]4)cc3)cc2)[nH]1 [Compound S-197]	<10
COc1ccc2c(C(=O)N3CCC[C@H]3c3ncc(-c4ccc(-c5ccc(-c6cnc([C@@H]7CCCN7C(=O)c7nccc8cc(OC)ccc78)[nH]6)cc5)cc4)[nH]3)nccc2c1 [Compound S-198]	>100
COc1cnc(C(=O)N2CCC[C@H]2c2ncc(-c3ccc(-c4ccc(-c5cnc([C@@H]6CCCN6C(=O)c6ncc(OC)c7ccccc67)[nH]5)cc4)cc3)[nH]2)c2ccccc12 [Compound S-199]	>100
O=C(c1ncc(Cl)c2ccccc12)N1CCC[C@H]1c1ncc(-c2ccc(-c3ccc(-c4cnc([C@@H]5CCCN5C(=O)c5ncc(Cl)c6ccccc56)[nH]4)cc3)cc2)[nH]1 [Compound S-200]	>100
COc1cccc2c(C(=O)N3CCC[C@H]3c3ncc(-c4ccc(-c5ccc(-c6cnc([C@@H]7CCCN7C(=O)c7nccc8c(OC)cccc78)[nH]6)cc5)cc4)[nH]3)nccc12 [Compound S-201]	>100
O=C(c1nccc2ccccc12)N1CCC[C@H]1c1ncc(-c2ccc(-c3ccc(-c4cnc([C@@H]5CCCN5C(=O)c5nccc6ccccc56)[nH]4)cc3)cc2)[nH]1 [Compound S-202]	>100
O=C(c1cccc2cnccc12)N1CCC[C@H]1c1ncc(-c2ccc(-c3ccc(-c4cnc([C@@H]5CCCN5C(=O)c5cccc6cnccc56)[nH]4)cc3)cc2)[nH]1 [Compound S-203]	<10
COc1ccc2c(C(=O)N3CCC[C@H]3c3ncc(-c4ccc(-c5ccc(-c6cnc([C@@H]7CCCN7C(=O)c7nc(Cl)cc8cc(OC)ccc78)[nH]6)cc5)cc4)[nH]3)nc(Cl)cc2c1 [Compound S-204]	>100
O=C(c1nccc2c(Cl)cccc12)N1CCC[C@H]1c1ncc(-c2ccc(-c3ccc(-c4cnc([C@@H]5CCCN5C(=O)c5nccc6c(Cl)cccc56)[nH]4)cc3)cc2)[nH]1 [Compound S-206]	>100
CC(C)(C)[C@H](NC(=O)C1CC(=O)c2ccccc2C1)c1nc(-c2ccc(-c3ccc(-c4c[nH]c([C@@H](NC(=O)C5CC(=O)c6ccccc6C5)C(C)(C)C)n4)cc3)cc2)c[nH]1 (some centres unmarked) [Compound S-256]	>100
CC(C)(C)[C@H](NC(=O)C1CC(=O)c2ccccc21)c1nc(-c2ccc(-c3ccc(-c4c[nH]c([C@@H](NC(=O)C5CC(=O)c6ccccc65)C(C)(C)C)n4)cc3)cc2)c[nH]1 (some centres unmarked) [Compound S-257]	>10
CCCC[C@@H](CC(=O)OC(C)(C)C)C(=O)N[C@H](c1nc(-c2ccc(-c3ccc(-c4c[nH]c([C@@H](NC(=O)[C@@H](CCCC)CC(=O)OC(C)(C)C)C(C)(C)C)n4)cc3)cc2)c[nH]1)C(C)(C)C [Compound S-260]	>100
CC(C)(C)[C@H](NC(=O)C12CCC(CC1)C2)c1nc(-c2ccc(-c3ccc(-c4c[nH]c([C@@H](NC(=O)C56CCC(CC5)C6)C(C)(C)C)n4)cc3)cc2)c[nH]1 [Compound S-261]	>100
COc1ccccc1C1OC(=O)C[C@@H]1C(=O)N[C@H](c1nc(-c2ccc(-c3ccc(-c4c[nH]c([C@@H](NC(=O)[C@H]5CC(=O)OC5c5ccccc5OC)C(C)(C)C)n4)cc3)cc2)c[nH]1)C(C)(C)C (some centres unmarked) [Compound S-263]	>10
CC(C)(C)OC(=O)N1CCC(C(=O)N[C@H](c2nc(-c3ccc(-c4ccc(-c5c[nH]c([C@@H](NC(=O)C6CCN(C(=O)OC(C)(C)C)CC6)C(C)(C)C)n5)cc4)cc3)c[nH]2)C(C)(C)C)CC1 [Compound S-264]	>100
CC(C)(C)[C@H](NC(=O)C1CC(=O)N(c2ccccc2O)C1)c1nc(-c2ccc(-c3ccc(-c4c[nH]c([C@@H](NC(=O)C5CC(=O)N(c6ccccc6O)C5)C(C)(C)C)n4)cc3)cc2)c[nH]1 (some centres unmarked) [Compound S-265]	>100
CC(C)(C)OC(=O)N[C@@H]1CCCC(C(=O)N[C@H](c2nc(-c3ccc(-c4ccc(-c5c[nH]c([C@@H](NC(=O)C6CCC[C@@H](NC(=O)OC(C)(C)C)C6)C(C)(C)C)n5)cc4)cc3)c[nH]2)C(C)(C)C)C1 (some centres unmarked) [Compound S-266]	>100

SMILES	Fold-Synergistic 1a (Q30E) [fold]
COc1ccc(CNC(C)(C)C(=O)N[C@H](c2nc(-c3ccc(-c4ccc(-c5c[nH]c([C@@H](NC(=O)C(C)(C)NCc6ccc(OC)cc6)C(C)(C)C)n5)cc4)cc3)c[nH]2)C(C)(C)C)cc1 [Compound S-267]	>100
CN1CCC(C(=O)N[C@H](c2nc(-c3ccc(-c4ccc(-c5c[nH]c([C@@H](NC(=O)C6CCN(C)CC6)C(C)(C)C)n5)cc4)cc3)c[nH]2)C(C)(C)C)CC1 [Compound S-268]	>10
CC(C)(C)[C@H](NC(=O)C1CCCCC1c1ccccc1)c1nc(-c2ccc(-c3ccc(-c4c[nH]c([C@@H](NC(=O)C5CCCCC5c5ccccc5)C(C)(C)C)n4)cc3)cc2)c[nH]1 (some centres unmarked) [Compound S-269]	>100
CC(C)(C)OC(=O)NC1CCC(C(=O)N[C@H](c2nc(-c3ccc(-c4ccc(-c5c[nH]c([C@@H](NC(=O)C6CCC(NC(=O)OC(C)(C)C)CC6)C(C)(C)C)n5)cc4)cc3)c[nH]2)C(C)(C)C)CC1 (some centres unmarked) [Compound S-270]	>100
CC(C)(C)OC(=O)C[C@H](C(=O)N[C@H](c1nc(-c2ccc(-c3ccc(-c4c[nH]c([C@@H](NC(=O)[C@@H](CC(=O)OC(C)(C)C)C5CCCC5)C(C)(C)C)n4)cc3)cc2)c[nH]1)C(C)(C)C)C1CCCC1 [Compound S-272]	>100
COC(=O)C1(C(=O)N[C@H](c2nc(-c3ccc(-c4ccc(-c5c[nH]c([C@@H](NC(=O)C6(C(=O)OC)CCCCC6)C(C)(C)C)n5)cc4)cc3)c[nH]2)C(C)(C)C)CCCCC1 [Compound S-273]	>100
CC(=O)OC1C2CCCC1(C(=O)N[C@H](c1nc(-c3ccc(-c4ccc(-c5c[nH]c([C@@H](NC(=O)C67CCCC(CCC6)C7OC(C)=O)C(C)(C)C)n5)cc4)cc3)c[nH]1)C(C)(C)C)CCC2 (some centres unmarked) [Compound S-274]	>100
COC(=O)N[C@@H]1CCCCC1C(=O)N[C@H](c1nc(-c2ccc(-c3ccc(-c4c[nH]c([C@@H](NC(=O)C5CCCC[C@H]5NC(=O)OC)C(C)(C)C)n4)cc3)cc2)c[nH]1)C(C)(C)C (some centres unmarked) [Compound S-275]	>100
CC(C)(C)[C@H](NC(=O)C(C)(C)n1ncnn1)c1nc(-c2ccc(-c3ccc(-c4c[nH]c([C@@H](NC(=O)C(C)(C)n5ncnn5)C(C)(C)C)n4)cc3)cc2)c[nH]1 [Compound S-276]	>100
CC(C)(C)[C@H](NC(=O)C(C)(C)n1cnnn1)c1nc(-c2ccc(-c3ccc(-c4c[nH]c([C@@H](NC(=O)C(C)(C)n5cnnn5)C(C)(C)C)n4)cc3)cc2)c[nH]1 [Compound S-277]	>100
Cc1c2c(nn1C)CCC(C(=O)N[C@H](c1nc(-c3ccc(-c4ccc(-c5c[nH]c([C@@H](NC(=O)C6CCc7nn(C)c(C)c7C6)C(C)(C)C)n5)cc4)cc3)c[nH]1)C(C)(C)C)C2 (some centres unmarked) [Compound S-278]	>100
CC1(C)OC(=O)CC1C(=O)N[C@H](c1nc(-c2ccc(-c3ccc(-c4c[nH]c([C@@H](NC(=O)C5CC(=O)OC5(C)C)C(C)(C)C)n4)cc3)cc2)c[nH]1)C(C)(C)C (some centres unmarked) [Compound S-279]	>10
CC1(C(=O)N[C@H](c2nc(-c3ccc(-c4ccc(-c5c[nH]c([C@@H](NC(=O)C6(C)COC(c7ccccc7)OC6)C(C)(C)C)n5)cc4)cc3)c[nH]2)C(C)(C)C)COC(c2ccccc2)OC1 (some centres unmarked) [Compound S-280]	>100
CCCC(C)(C)C(=O)N[C@H](c1nc(-c2ccc(-c3ccc(-c4c[nH]c([C@@H](NC(=O)C(C)(C)CCC)C(C)(C)C)n4)cc3)cc2)c[nH]1)C(C)(C)C [Compound S-281]	>100
CC(C)(C)[C@H](NC(=O)C(F)(F)c1ccccc1)c1nc(-c2ccc(-c3ccc(-c4c[nH]c([C@@H](NC(=O)C(F)(F)c5ccccc5)C(C)(C)C)n4)cc3)cc2)c[nH]1 [Compound S-282]	>100
CC(C)(C)[C@H](NC(=O)C(F)(F)C(O)c1cccnc1)c1nc(-c2ccc(-c3ccc(-c4c[nH]c([C@@H](NC(=O)C(F)(F)C(O)c5cccnc5)C(C)(C)C)n4)cc3)cc2)c[nH]1 (some centres unmarked) [Compound S-283]	>100
CCC(F)(F)C(=O)N[C@H](c1nc(-c2ccc(-c3ccc(-c4c[nH]c([C@@H](NC(=O)C(F)(F)CC)C(C)(C)C)n4)cc3)cc2)c[nH]1)C(C)(C)C [Compound S-284]	>100
CC(C)(C)[C@H](NC(=O)C1(c2ccc(F)cc2)CC1(C)C)c1nc(-c2ccc(-c3ccc(-c4c[nH]c([C@@H](NC(=O)C5(c6ccc(F)cc6)CC5(C)C)C(C)(C)C)n4)cc3)cc2)c[nH]1 (some centres unmarked) [Compound S-285]	>100
CC(C)(C)[C@H](NC(=O)C1(F)CCCCC1)c1nc(-c2ccc(-c3ccc(-c4c[nH]c([C@@H](NC(=O)C5(F)CCCCC5)C(C)(C)C)n4)cc3)cc2)c[nH]1 [Compound S-286]	>100
